Laboratory results published in ChEMBL document CHEMBL4382208, “Design, synthesis and biological evaluation of novel 2-sulfonylindoles as potential anti-inflammatory therapeutic agents for treatment of acute lung injury” (Eur J Med Chem, 2018).
pIC50: −log10 of the molar value. Calls of active or inactive are those of the source. No cut-off for these calls is given here.

Assays:
[1] = test system: Peritoneal macrophage; test: Antiinflammatory activity in mouse primary peritoneal macrophages assessed as inhibition of LPS-induced TNF-alpha production at 10 uM preincubated for 30 mins followed by LPS addition and measured after 24 hrs by ELISA relative to control; assay type: functional
[2] = test system: Peritoneal macrophage; test: Cytotoxicity against mouse primary peritoneal macrophages assessed as reduction in cell viability at 10 uM after 24 hrs by MTT assay; assay type: cell-based
[3] = test system: Peritoneal macrophage; test: Antiinflammatory activity in mouse primary peritoneal macrophages assessed as inhibition of LPS-induced IL-6 production at 10 uM preincubated for 30 mins followed by LPS addition and measured after 24 hrs by ELISA relative to control; assay type: functional
[4] = test system: Peritoneal macrophage; test: Antiinflammatory activity in mouse primary peritoneal macrophages assessed as inhibition of LPS-induced IL-6 production preincubated for 30 mins followed by LPS addition and measured after 24 hrs by ELISA; assay type: functional, cell-based
[5] = test system: Mus musculus; test: Antiinflammatory activity in C57BL/6 mouse assessed as inhibition of LPS-induced destruction of alveolar structure at 10 to 20 mg/kg, ip pretreated for 30 mins followed by LPS addition measured after 6 hrs by hematoxylin and eosin staining based microscopic analysis; assay type: functional, organism-based
[6] = test system: Mus musculus; test: Antiinflammatory activity in C57BL/6 mouse assessed as inhibition of LPS-induced inflammatory cell infiltration at 10 to 20 mg/kg, ip pretreated for 30 mins followed by LPS addition measured after 6 hrs by hematoxylin and eosin staining based microscopic analysis; assay type: functional, organism-based
[7] = test system: Peritoneal macrophage; test: Antiinflammatory activity in mouse primary peritoneal macrophages assessed as inhibition of LPS-induced IL-6 mRNA expression at 5 to 10 uM by RT-qPCR analysis; assay type: functional, cell-based
[8] = test system: Mus musculus; test: Antiinflammatory activity in C57BL/6 mouse assessed as inhibition of LPS-induced lung edema at 10 to 20 mg/kg, ip pretreated for 30 mins followed by LPS addition measured after 6 hrs by hematoxylin and eosin staining based microscopic analysis; assay type: functional, organism-based
[9] = test system: Peritoneal macrophage; test: Antiinflammatory activity in mouse primary peritoneal macrophages assessed as inhibition of LPS-induced IL-1beta mRNA expression at 5 to 10 uM by RT-qPCR analysis; assay type: functional, cell-based
[10] = test system: Peritoneal macrophage; test: Antiinflammatory activity in mouse primary peritoneal macrophages assessed as inhibition of LPS-induced VCAM-1 mRNA expression at 5 to 10 uM by RT-qPCR analysis; assay type: functional, cell-based
[11] = test system: Mus musculus; test: Antiinflammatory activity in C57BL/6 mouse assessed as reduction in lung wet/dry ratio at 10 to 20 mg/kg, ip pretreated for 30 mins followed by LPS addition measured after 6 hrs; assay type: functional, organism-based
[12] = test system: Mus musculus; test: Antiinflammatory activity in C57BL/6 mouse assessed as inhibition of LPS-induced TNF-alpha level in bronchoalveolar lavage fluid at 10 to 20 mg/kg, ip pretreated for 30 mins followed by LPS addition measured after 6 hrs; assay type: functional, organism-based
[13] = test system: Mus musculus; test: Antiinflammatory activity in C57BL/6 mouse assessed as inhibition of LPS-induced IL-6 mRNA expression in lungs at 10 to 20 mg/kg, ip by RT-qPCR analysis; assay type: functional, organism-based
[14] = test system: Mus musculus; test: Antiinflammatory activity in C57BL/6 mouse assessed as inhibition of LPS-induced total protein level in bronchoalveolar lavage fluid at 10 to 20 mg/kg, ip pretreated for 30 mins followed by LPS addition measured after 6 hrs; assay type: functional, organism-based
[15] = test system: Mus musculus; test: Antiinflammatory activity in C57BL/6 mouse assessed as inhibition of LPS-induced macrophage filtration in lung by measuring CD68 protein expression at 10 to 20 mg/kg, ip pretreated for 30 mins followed by LPS addition measured after 6 hrs by immunohistochemistry; assay type: functional, organism-based
[16] = test system: Mus musculus; test: Antiinflammatory activity in C57BL/6 mouse assessed as inhibition of LPS-induced alveolar hemorrhage at 10 to 20 mg/kg, ip pretreated for 30 mins followed by LPS addition measured after 6 hrs by hematoxylin and eosin staining based microscopic analysis; assay type: functional, organism-based
[17] = test system: Mus musculus; test: Antiinflammatory activity in C57BL/6 mouse assessed as inhibition of LPS-induced VCAM-1 mRNA expression in lungs at 10 to 20 mg/kg, ip by RT-qPCR analysis; assay type: functional, organism-based
[18] = test system: Mus musculus; test: Antiinflammatory activity in C57BL/6 mouse assessed as inhibition of LPS-induced IL-1beta mRNA expression in lungs at 10 to 20 mg/kg, ip by RT-qPCR analysis; assay type: functional, organism-based
[19] = test system: Mus musculus; test: Antiinflammatory activity in C57BL/6 mouse assessed as inhibition of LPS-induced IL-6 level in bronchoalveolar lavage fluid at 10 to 20 mg/kg, ip pretreated for 30 mins followed by LPS addition measured after 6 hrs; assay type: functional, organism-based
[20] = test system: Peritoneal macrophage; test: Antiinflammatory activity in mouse primary peritoneal macrophages assessed as inhibition of LPS-induced TNF-alpha production preincubated for 30 mins followed by LPS addition and measured after 24 hrs by ELISA; assay type: functional, cell-based
[21] = test system: Mus musculus; test: Antiinflammatory activity in C57BL/6 mouse assessed as inhibition of LPS-induced neutrophil filtration in lung by measuring myeloperoxidase activity at 10 to 20 mg/kg, ip pretreated for 30 mins followed by LPS addition measured after 6 hrs by Giemsa staining-based assay; assay type: functional, organism-based
[22] = test system: Mus musculus; test: Antiinflammatory activity in C57BL/6 mouse assessed as inhibition of LPS-induced total number of cells in bronchoalveolar lavage fluid at 10 to 20 mg/kg, ip pretreated for 30 mins followed by LPS addition measured after 6 hrs by Giemsa staining-based assay; assay type: functional, organism-based

In the case of `Cn1c(S(=O)(=O)c2cccs2)cc2ccccc21`, the inhibition [1] was “Active”, the Activity [2] was “Non-Toxic” and the inhibition [3] was “Active”.
`COc1ccc2c(c1)c(CC(=O)O)c(C)n2C(=O)c1ccc(Cl)cc1` [INDOMETHACIN] was tested, and the inhibition [1] was “Active”, the Activity [2] was “Non-Toxic” and the inhibition [3] was “Active”.
`Cc1ccc2cc(S(=O)(=O)c3cccc4ccccc34)[nH]c2c1` was tested, and the inhibition [1] was “Active”, the Activity [2] was “Non-Toxic” and the inhibition [3] was “Active”.
`Cc1ccc(S(=O)(=O)c2cc3cc(Br)ccc3n2C)cc1` was tested, and the inhibition [1] was “Active”, the Activity [2] was “Non-Toxic” and the inhibition [3] was “Active”.
For `Cc1ccc(S(=O)(=O)c2c(C)n(C)c3ccccc23)cc1`, the inhibition [1] was “Active”, the Activity [2] was “Non-Toxic” and the inhibition [3] was “Active”.
In the case of `Cn1c(S(=O)(=O)c2cccc3ccccc23)cc2ccccc21`, the inhibition [1] was “Active”, the Activity [2] was “Non-Toxic” and the inhibition [3] was “Active”.
With `Cc1c(S(=O)(=O)c2ccc(C(F)(F)F)cc2)n(C)c2ccccc12` the inhibition [1] was “Active”, the Activity [2] was “Non-Toxic” and the inhibition [3] was “Active”.
`Cn1c(S(C)(=O)=O)cc2ccccc21` was tested, and the inhibition [1] was “Active”, the Activity [2] was “Non-Toxic” and the inhibition [3] was “Active”.
For `Cn1c(S(=O)(=O)c2ccccc2)cc2ccccc21`, the inhibition [1] was “Active”, the Activity [2] was “Non-Toxic” and the inhibition [3] was “Active”.
With `Cn1c(S(=O)(=O)c2ccc(F)cc2)cc2ccccc21` the inhibition [1] was “Active”, the Activity [2] was “Non-Toxic” and the inhibition [3] was “Active”.
`Cn1c(S(=O)(=O)c2ccc(Cl)cc2)cc2ccccc21` was tested, and the inhibition [1] was “Active”, the Activity [2] was “Non-Toxic” and the inhibition [3] was “Active”.
With `Cc1ccc(S(=O)(=O)c2cc3ccc(C)cc3n2C)cc1` the inhibition [1] was “Active”, the Activity [2] was “Non-Toxic” and the inhibition [3] was “Active”.
In the case of `Cc1ccc(S(=O)(=O)c2cc3ccc(F)cc3n2C)cc1`, the inhibition [1] was “Active”, the Activity [2] was “Non-Toxic” and the inhibition [3] was “Active”.
With `Cc1ccc(S(=O)(=O)c2c(C)c3ccccc3n2C)cc1` the inhibition [1] was “Active”, the Activity [2] was “Non-Toxic” and the inhibition [3] was “Active”.
With `Cc1ccc(S(=O)(=O)c2cc3cc([N+](=O)[O-])ccc3n2C)cc1` the inhibition [1] was “Active”, the Activity [2] was “Non-Toxic” and the inhibition [3] was “Active”.
For `Cc1c(S(=O)(=O)c2ccc(C(C)(C)C)cc2)n(C)c2ccccc12`, the inhibition [1] was “Active”, the Activity [2] was “Non-Toxic” and the inhibition [3] was “Active”.
`Cn1c(S(=O)(=O)c2ccc(C(F)(F)F)cc2)cc2ccccc21` was tested, and the pIC50 [4] was 5.74, the inhibition [4] was “Dose-dependent effect” and the inhibition [5] was “Active”. For the same molecule, the inhibition at 10 µM [1] was 82%, the inhibition [6] was “Active” and the inhibition [7] was “Active”. For the same molecule, the inhibition [8] was “Active”, the inhibition [9] was “Active” and the inhibition [10] was “Active”. For the same molecule, the Activity [11] was “Active”, the inhibition [12] was “Active” and the inhibition [13] was “Active”. The inhibition [14] was “Active”, the inhibition [15] was “Active” and the inhibition [16] was “Active”. The inhibition [17] was “Active”, the Activity [2] was “Non-Toxic” and the inhibition [18] was “Active”. The inhibition [19] was “Active”, the pIC50 [20] was 5.10 and the inhibition [20] was “Dose-dependent effect”. The inhibition at 10 µM [3] was 88%, the inhibition [21] was “Active” and the inhibition [22] was “Active”.
`Cc1ccccc1S(=O)(=O)c1cc2ccccc2n1C` was tested, and the inhibition [1] was “Active”, the Activity [2] was “Non-Toxic” and the inhibition [3] was “Active”.
For `Cc1ccc(S(=O)(=O)c2cc3c(Cl)cccc3n2C)cc1`, the inhibition [1] was “Active”, the Activity [2] was “Non-Toxic” and the inhibition [3] was “Active”.
For `Cc1ccc(S(=O)(=O)c2[nH]c3ccccc3c2I)cc1`, the inhibition [1] was “Active”, the Activity [2] was “Non-Toxic” and the inhibition [3] was “Active”.
With `Cc1ccc(S(=O)(=O)c2cc3ccccc3n2C)cc1` the pIC50 [4] was 5.62, the inhibition [4] was “Dose-dependent effect” and the inhibition at 10 µM [1] was 82%. The Activity [2] was “Non-Toxic”, the pIC50 [20] was 4.92 and the inhibition [20] was “Dose-dependent effect”. For the same molecule, the inhibition at 10 µM [3] was 88%.
For `Cc1ccc(S(=O)(=O)c2cc3c(Cl)cccc3[nH]2)cc1`, the inhibition [1] was “Active”, the Activity [2] was “Non-Toxic” and the inhibition [3] was “Active”.
`Cn1c(S(=O)(=O)c2ccc(-c3ccccc3)cc2)cc2ccccc21` was tested, and the inhibition [1] was “Active”, the Activity [2] was “Non-Toxic” and the inhibition [3] was “Active”.
With `CCn1c(-c2ccccc2)c(S(=O)(=O)c2ccc(C)cc2)c2ccccc21` the inhibition [1] was “Active”, the Activity [2] was “Non-Toxic” and the inhibition [3] was “Active”.
With `Cn1c(S(=O)(=O)c2ccc(C(C)(C)C)cc2)cc2ccccc21` the pIC50 [4] was 5.96, the inhibition [4] was “Dose-dependent effect” and the inhibition [5] was “Active”. For the same molecule, the inhibition at 10 µM [1] was 82%, the inhibition [6] was “Active” and the inhibition [7] was “Active”. The inhibition [8] was “Active”, the inhibition [9] was “Active” and the inhibition [10] was “Active”. For the same molecule, the Activity [11] was “Active”, the inhibition [12] was “Active” and the inhibition [13] was “Active”. The inhibition [14] was “Active”, the inhibition [15] was “Active” and the inhibition [16] was “Active”. The inhibition [17] was “Active”, the Activity [2] was “Non-Toxic” and the inhibition [18] was “Active”. The inhibition [19] was “Active”, the pIC50 [20] was 5.51 and the inhibition [20] was “Dose-dependent effect”. For the same molecule, the inhibition at 10 µM [3] was 88%, the inhibition [21] was “Active” and the inhibition [22] was “Active”.
With `COc1ccc2c(c1)cc(S(=O)(=O)c1ccc(C)cc1)n2C` the inhibition [1] was “Active”, the Activity [2] was “Non-Toxic” and the inhibition [3] was “Active”.
With `CCCCn1c(S(=O)(=O)c2ccc(C)cc2)cc2ccccc21` the inhibition [1] was “Active”, the Activity [2] was “Non-Toxic” and the inhibition [3] was “Active”.
In the case of `Cc1ccc(S(=O)(=O)c2[nH]c3cc(C)ccc3c2I)cc1`, the inhibition [1] was “Active”, the Activity [2] was “Non-Toxic” and the inhibition [3] was “Active”.
With `COc1ccc2c(c1)cc(S(=O)(=O)c1ccc(C(C)(C)C)cc1)n2C` the inhibition [1] was “Active”, the Activity [2] was “Non-Toxic” and the inhibition [3] was “Active”.
With `COc1ccc2c(c1)cc(S(=O)(=O)c1ccc(C(F)(F)F)cc1)n2C` the inhibition [1] was “Active”, the Activity [2] was “Non-Toxic” and the inhibition [3] was “Active”.
`COc1ccc(S(=O)(=O)c2[nH]c3cc(C)ccc3c2I)cc1` was tested, and the inhibition [1] was “Active”, the Activity [2] was “Non-Toxic” and the inhibition [3] was “Active”.
`COc1ccc(S(=O)(=O)c2cc3ccccc3n2C)cc1` was tested, and the pIC50 [4] was 5.95, the inhibition [1] was “Active” and the Activity [2] was “Non-Toxic”. The pIC50 [20] was 4.23 and the inhibition [3] was “Active”.
